Experimental data published in US9763992B2, “Treatment of noise induced hearing loss” (Father Flanagan's Boys' Home, priority 2014, dated 2017).

Key:
TGF-β = test: qRT-PCR cytokine expression after noise exposure: TGF-β; assay type: in vivo, mouse; conditions: GA-treated mice, spleen tissues
Method: (§1) To determine if GA affects cytokine expression, groups of mice received GA as described above, and cytokine expression was evaluated via RT-PCR.
(§2) Using RT-PCR, the effects of GA on cytokine expression in the cochlea, specifically those mediators associated with pro- or anti-inflammatory activity, was established.

[1] = system: noise-induced hearing loss (NIHL) in CBA mice; test: DPOAE input-output curves (outer hair cell function) after noise exposure in mice; assay type: in vivo; conditions: one GA-treated mouse relative to saline-treated; 14 days following noise exposure; f2=11.3 kHz; FIG. 4
Method: (§3) To determine if the glatiramer acetate (GA) prevents or reduces hearing loss in mice following exposure to traumatizing noise, following determination of baseline acoustic thresholds (i.e., pre-noise exposure thresholds), hearing sensitivity and input-output relationships was assessed during the post-noise exposure period using auditory evoked brainstem responses (ABRs) and distortion product otoacoustic emissions (DPOAEs); DPOAEs were studied using the same protocol as in ABR-based studies to separate findings associated with neural and sensory outcomes. Responses to tone burst stimuli was acquired immediately following noise exposure, daily during the early post-exposure period, and intermittently thereafter for six (6) months to generally assess the long-term outcome of exposure to traumatizing noise in CBA mice. Morphological correlates of final treatment outcomes, including sensory and support cell (cytocochleograms), synapses between hair cells and spiral ganglion dendrites, and SGN survival estimates, was made at the end of the acute phase (2 months following noise exposure) or at 6 months to assess long-term outcomes.
The traumatizing noise used in CBA mouse studies was an octave band of white noise centered on 11.3 kHz and was presented at 109 dB SPL for 30 min. […]

TNF-alpha = test: qRT-PCR cytokine expression after noise exposure: TNF-alpha; assay type: in vivo, mouse; conditions: GA-treated mice, 10 days following noise exposure (Group 1), FIG. 7
Method: as §1, §2

[2] = system: noise-induced hearing loss (NIHL) in CBA mice; test: ABR threshold recovery after traumatizing noise exposure in mice; assay type: in vivo, mouse
Method: as §3
The traumatizing noise used in CBA mouse studies was an octave band of white noise centered on 11.3 kHz and was presented at 109 dB SPL for 30 min. Because of well-documented differences in the abilities of males and females to mount inflammatory responses, both males and females were included in this investigation.
In mice, GA (100 mg/kg) was administered following two treatment strategies. In Group 1, GA was administered in sequential doses one month and one week prior to noise exposure (the “protection” approach), with supplementary doses on a daily basis for the first 4 days following noise exposure and again on the 7th and 14th post-exposure days in mice, to determine if GA can prevent permanent hearing loss associated with traumatizing noise. In Group 2, GA was administered only during the post-noise exposure period in an effort to determine if GA can rescue hearing following acute trauma. In a subset of animals, GA was administered prior to noise exposure and then daily for the first ten post-exposure days. Complete Freund's adjuvant will be used to deliver the first dose of the agent to determine if GA actions might be potentiated (boosted) when delivered in an emulsified form in a separate group of mice.
An example of findings associated with this experimental design is shown in FIG. 2, in which families of ABR threshold-frequency curves (audiograms) generated by tracking sensitivity according to the “protection” protocol reviewed above in a GA-treated animal (right panel) and a saline-treated control (left panel) that were exposed to noise simultaneously are shown.
With this example, to determine if treatment with GA alone reduces the amount of temporary and permanent hearing loss and/or accelerates the rate of recovery from temporary threshold shift (TTS), groups of mice received GA or saline and were evaluated as described above.

IL-4 = test: qRT-PCR cytokine expression after noise exposure: IL-4; assay type: in vivo, mouse; conditions: GA-treated mice, 10 days following noise exposure (Group 1), spleen tissues, FIG. 6
Method: (§4) To determine if GA affects cytokine expression, groups of mice received GA as described above, and cytokine expression was evaluated via RT-PCR. […]

IL-2 = test: qRT-PCR cytokine expression after noise exposure: IL-2; assay type: in vivo, mouse; conditions: GA-treated mice, 10 days following noise exposure (Group 1), FIG. 7
Method: as §1, §2

interferon-gamma = test: qRT-PCR cytokine expression after noise exposure: interferon-gamma; assay type: in vivo, mouse; conditions: GA-treated mice, 10 days following noise exposure (Group 1), spleen tissues, FIG. 6
Method: as §4

IL-17 = test: qRT-PCR cytokine expression after noise exposure: IL-17; assay type: in vivo, mouse; conditions: GA-treated mice, 10 days following noise exposure (Group 1), FIG. 7
Method: as §1, §2

Glatiramer acetate [GA] was tested, and the TGF-β expression (TGF-β) was “up-regulation”, the “Recovery of outer hair cell (OHC) function, DPOAE input-output curves” value [1] was “nearly complete recovery” and the TNF-α expression (TNF-alpha) was “down-regulated”. The “Total extent of recovery following exposure (cohort)” value ([2]; GA cohort, control animals approximately 17 dB, FIG. 5) was roughly 25 dB, the “Threshold recovery during the first 10 days following exposure relative to saline-treated controls and GA-treated mice below criterion” value ([2]; GA-treated mice with at least 3.4-fold IL-4 increase, stimulus frequencies within the noise band (8.0, 11.3 and 16.0 kHz), FIG. 9) was “greater” and the “Overall threshold recovery from NIHL relative to saline-treated controls and GA-treated mice below criterion” value ([2]; GA-treated mice with at least 3.4-fold increase in IL-4 expression (criterion), FIG. 8) was “significantly greater”. The “Recovery with GA treatment alone compared with saline controls” value ([2]; P<0.05) was “significantly enhanced”, the “Recovery from NIHL (ABR threshold-frequency curves)” value ([2]; one GA-treated mouse, protection protocol, GA 100 mg/kg, frequencies at and immediately above noise centre frequency 11.3 kHz, first 14 days after exposure, FIG. 2, 3) was “nearly complete” and the “Expression of anti-inflammatory cytokine IL-4, fold greater than controls” value (IL-4) was 2.6 fold. The IL-2 expression (IL-2) was “down-regulated”, the “Interferon-gamma expression, reduction re controls” value (interferon-gamma) was 66% and the IL-17 expression (IL-17) was “down-regulated”.
